From patent US7595401B2, “Therapeutic compounds and their use in cancer” (Myriad Pharmaceuticals, Inc., priority 2006, dated 2009)

Molecular target: purified human Hsp90
Test: Binding Assay: fluorescence polarization with BODIPY-labeled geldanamycin
Details: BODIPY-GM 10 nM, Hsp90 30 nM
Summary of the method: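 Fluorescence polarization competition with BODIPY-geldanamycin (10 nM final) and human Hsp90 (30 nM final) in HEPES-KOH pH 7.3 buffer with molybdate, NP-40, DTT; 2% DMSO, overnight at room temperature. Read 485/530 nm; percent inhibition from mP normalized to DMSO controls, fluorescent-compound points excluded.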

Row | Structure (SMILES) | IC50 [nM] | % Inhibition at 5 μM Compound Concentration [%]
1 | Nc1ncn(CCC2CCCCN2S(=O)(=O)C(F)(F)F)c2nc(Sc3cc4c(cc3Br)OCO4)nc1-2 (centres unmarked) [Example 397, 8-[(6-Bromo-1,3-benzodioxol-5-yl)thio]-3-(2-{1-[(trifluoromethyl)sulfonyl]piperidin 2-yl}ethyl)-3H-purin-6-amine] | – | 1
2 | CC(C)(C)OC(=O)N[C@H]1CC[C@@H](CCn2c(Sc3cc4c(cc3Br)OCO4)nc3c(N)ncnc32)CC1 [Example 398, tert-Butyl [cis-4-(2-{6-amino-8-[(6-bromo-1,3-benzodioxol-5-yl)thio]-9H-purin-9-yl}ethyl)cyclohexyl]carbamate] | 140 | –
3 | CC(C)(C)OC(=O)N[C@H]1CC[C@@H](CCn2cnc(N)c3nc(Sc4cc5c(cc4Br)OCO5)nc2-3)CC1 [Example 399, tert-Butyl [cis-4-(2-{6-amino-8-[(6-bromo-1,3-benzodioxol-5-yl)thio]-3H-purin-3-yl}ethyl)cyclohexyl]carbamate] | 950 | –
4 | CC(=O)N1CCCC(CCn2cnc(N)c3nc(Sc4cc5c(cc4Br)OCO5)nc2-3)C1 (centres unmarked) [Example 401, 3-[2-(1-Acetylpiperidin-3-yl)ethyl]-8-[(6-bromo-1,3-benzodioxol-5-yl)thio]-3H-purin-6-amine] | – | 2
5 | COc1ccc(OC)c(Sc2nc3c(N)ncnc3n2CCC2=CC3CC(C2)C3(C)C)c1 (centres unmarked) [Example 405, 8-[(2,5-Dimethoxyphenyl)thio]-9-[2-(6,6-dimethylbicyclo[3.1.1]hept-2-en-3-yl)ethyl]-9H-purin-6-amine] | > 8000 | –
6 | CC1=NNC(=O)C1CCn1c(Sc2cc3c(cc2Br)OCO3)nc2c(N)ncnc21 (centres unmarked) [Example 406, 4-(2-{6-Amino-8-[(6-bromo-1,3-benzodioxol-5-yl)thio]-9H-purin-9-yl}ethyl)-5-methyl-2,4-dihydro-3H-pyrazol-3-one] | > 25000 | –
7 | COc1ccc(OC)c(Sc2nc3c(N)ncnc3n2CCC2C(=O)NN=C2C)c1 (centres unmarked) [Example 407, 4-(2-{6-Amino-8-[(2,5-dimethoxyphenyl)thio]-9H-purin-9-yl}ethyl)-5-methyl-2,4-dihydro-3H-pyrazol-3-one] | > 25000 | –
8 | Nc1ncnc2c1nc(Sc1cc3c(cc1Br)OCO3)n2CCC1CCN(C(=O)OCc2ccccc2)CC1 [Example 409, Benzyl 4-(2-{6-amino-8-[(6-bromo-1,3-benzodioxol-5-yl)thio]-9H-purin-9-yl}ethyl)piperidine-1-carboxylate] | 130 | –
9 | Nc1ncn(CCC2CCN(C(=O)OCc3ccccc3)CC2)c2nc(Sc3cc4c(cc3Br)OCO4)nc1-2 [Example 410, Benzyl 4-(2-{6-amino-8-[(6-bromo-1,3-benzodioxol-5-yl)thio]-3H-purin-3-yl}ethyl)piperidine-1-carboxylate] | – | 11
10 | CC(C)(C)OC(=O)N1CCCC1CCn1cnc(N)c2nc(Sc3cc4c(cc3Br)OCO4)nc1-2 (centres unmarked) [Example 412, tert-Butyl 2-(2-{6-amino-8-[(6-bromo-1,3-benzodioxol-5-yl)thio]-3H-purin-3-yl}ethyl)pyrrolidine-1-carboxylate] | – | 0
11 | CC(C)(C)OC(=O)N1CCC(CCn2cnc(N)c3nc(Sc4cc5c(cc4Br)OCO5)nc2-3)C1 (centres unmarked) [Example 413, tert-Butyl 3-(2-{6-amino-8-[(6-bromo-1,3-benzodioxol-5-yl)thio]-3H-purin-3-yl}ethyl)pyrrolidine-1-carboxylate] | – | 28
12 | CC(C)(C)OC(=O)N1CCCC1CCn1c(Sc2cc3c(cc2Br)OCO3)nc2c(N)ncnc21 (centres unmarked) [Example 414, tert-Butyl 2-(2-{6-amino-8-[(6-bromo-1,3-benzodioxol-5-yl)thio]-9H-purin-9-yl}ethyl)pyrrolidine-1-carboxylate] | 540 | –
13 | CC(C)(C)OC(=O)N1CCCC[C@H]1CCn1c(Sc2cc3c(cc2Br)OCO3)nc2c(N)ncnc21 [Example 416, tert-Butyl (2S)-2-(2-{6-amino-8-[(6-bromo-1,3-benzodioxol-5-yl)thio]-9H-purin-9-yl}ethyl)piperidine-1-carboxylate] | 200 | –
14 | CC(C)(C)OC(=O)N1CCCC[C@H]1CCn1cnc(N)c2nc(Sc3cc4c(cc3Br)OCO4)nc1-2 [Example 417, tert-Butyl (2S)-2-(2-{6-amino-8-[(6-bromo-1,3-benzodioxol-5-yl)thio]-3H-purin-3-yl}ethyl)piperidine-1-carboxylate] | – | 0
15 | Nc1ncnc2c1nc(Sc1cc3c(cc1Br)OCO3)n2CCC1CCCN1C(=O)OCc1ccccc1 (centres unmarked) [Example 419, Benzyl 2-(2-{6-amino-8-[(6-bromo-1,3-benzodioxol-5-yl)thio]-9H-purin-9-yl}ethyl)pyrrolidine-1-carboxylate] | 2900 | –
16 | CC(C)(C)OC(=O)N1CC[C@H](CCn2cnc(N)c3nc(Sc4cc5c(cc4Br)OCO5)nc2-3)C1 [Example 420, tert-Butyl (3S)-3-(2-{6-amino-8-[(6-bromo-1,3-benzodioxol-5-yl)thio]-3 H-purin-3-yl}ethyl)pyrrolidine-1-carboxylate] | – | 7
17 | Nc1ncn(CCC2CCCN2C(=O)OCc2ccccc2)c2nc(Sc3cc4c(cc3Br)OCO4)nc1-2 (centres unmarked) [Example 421, Benzyl 2-(2-{6-amino-8-[(6-bromo-1,3-benzodioxol-5-yl)thio]-3H-purin-3-yl}ethyl)pyrrolidine-1-carboxylate] | – | 28
18 | Nc1ncn(CCC2=CCN(Cc3ccccc3)CC2)c2nc(Sc3cc4c(cc3Br)OCO4)nc1-2 [Example 425, 3-[2-(1-Benzyl-1,2,3,6-tetrahydropyridin-4-yl)ethyl]-8-[(6-bromo-1,3-benzodioxol-5-yl)thio]-3H-purin-6-amine] | – | 6
19 | CN1[C@@H]2CC[C@H]1C[C@@H](CCn1c(Sc3cc4c(cc3Br)OCO4)nc3c(N)ncnc31)C2 [Example 426, 8-[(6-Bromo-1,3-benzodioxol-5-yl)thio]-9-{2-[(3-endo)-8-methyl-8-azabicyclo[3.2.1]oct-3-yl]ethyl}-9H-purin-6-amine] | 150 | –
20 | CN1C2CCC1CC(CCn1cnc(N)c3nc(Sc4cc5c(cc4Br)OCO5)nc1-3)C2 (stereo not drawn) [Example 427, 8-[(6-Bromo-1,3-benzodioxol-5-yl)thio]-3-{2-[(3-endo)-8-methyl-8-azabicyclo[3.2.1]oct-3-yl]ethyl}-3H-purin-6-amine] | – | 32
21 | CC(C)(C)NC(=O)N1CCC(CCn2c(Sc3cc4c(cc3Br)OCO4)nc3c(N)ncnc32)CC1 [Example 433, 4-(2-{6-Amino-8-[(6-bromo-1,3-benzodioxol-5-yl)thio]-9H-purin-9-yl}ethyl)-N-(tert-butyl)piperidine-1-carboxamide] | 125 | –
22 | CCOC(=O)CNC(=O)N1CCC(CCn2c(Sc3cc4c(cc3Br)OCO4)nc3c(N)ncnc32)CC1 [Example 434, Ethyl N-{[4-(2-{6-amino-8-[(6-bromo-1,3-benzodioxol-5-yl)thio]-9H-purin-9-yl}ethyl)piperidin-1-yl]carbonyl}glycinate] | 37 | –

Results, then the compound that gave them:

Row | IC50 [nM] | % Inhibition at 5 μM Compound Concentration [%] | Structure (SMILES)
23 | 810 | – | Nc1ncnc2c1nc(Sc1cc3c(cc1Br)OCO3)n2CCC1CCCCN1S(=O)(=O)C(F)(F)F (centres unmarked) [Example 396, 8-[(6-Bromo-1,3-benzodioxol-5-yl)thio]-9-(2-{1-[(trifluoromethyl)sulfonyl]piperidin 2-yl}ethyl)-9H-purin-6-amine]
24 | 6000 | – | CC(=O)N1CCCC(CCn2c(Sc3cc4c(cc3Br)OCO4)nc3c(N)ncnc32)C1 (centres unmarked) [Example 400, 9-[2-(1-Acetylpiperidin-3-yl)ethyl]-8-[(6-bromo-1,3-benzodioxol-5-yl)thio]-9H-purin-6-amine]
25 | 590 | – | Nc1ncnc2c1nc(Sc1cc3c(cc1Br)OCO3)n2CCC1CCCN(S(=O)(=O)C(F)(F)F)C1 (centres unmarked) [Example 402, 8-[(6-Bromo-1,3-benzodioxol-5-yl)thio]-9-(2-{1-[(trifluoromethyl)sulfonyl]piperidin 3-yl}ethyl)-9H-purin-6-amine]
26 | – | 14 | Nc1ncn(CCC2CCCN(S(=O)(=O)C(F)(F)F)C2)c2nc(Sc3cc4c(cc3Br)OCO4)nc1-2 (centres unmarked) [Example 403, 8-[(6-Bromo-1,3-benzodioxol-5-yl)thio]-3-(2-{1-[(trifluoromethyl)sulfonyl]piperidin-3-yl}ethyl)-3H-purin-6-amine]
27 | 460 | – | CC(C)(C)OC(=O)N1CCC(CCn2c(Sc3cc4c(cc3Br)OCO4)nc3c(N)ncnc32)C1 (centres unmarked) [Example 415, tert-Butyl 3-(2-{6-amino-8-[(6-bromo-1,3-benzodioxol-5-yl)thio]-9H-purin-9-yl}ethyl)pyrrolidine-1-carboxylate]
28 | 300 | – | CC(C)(C)OC(=O)N1CC[C@H](CCn2c(Sc3cc4c(cc3Br)OCO4)nc3c(N)ncnc32)C1 [Example 418, tert-Butyl (3R)-3-(2-{6-amino-8-[(6-bromo-1,3-benzodioxol-5-yl)thio]-9H-purin-9-yl}ethyl)pyrrolidine-1-carboxylate]
29 | 130 | – | CCNC(=O)N1CCC(CCn2c(Sc3cc4c(cc3Br)OCO4)nc3c(N)ncnc32)CC1 [Example 431, 4-(2-{6-Amino-8-[(6-bromo-1,3-benzodioxol-5-yl)thio]-9H-purin-9-yl}ethyl)-N-ethylpiperidine-1-carboxamide]
30 | 65 | – | CC(C)NC(=O)N1CCC(CCn2c(Sc3cc4c(cc3Br)OCO4)nc3c(N)ncnc32)CC1 [Example 432, 4-(2-{6-Amino-8-[(6-bromo-1,3-benzodioxol-5-yl)thio]-9H-purin-9-yl}ethyl)-N-isopropylpiperidine-1-carboxamide]
31 | 195 | – | CCNC(=O)N1CCCC(CCn2c(Sc3cc4c(cc3Br)OCO4)nc3c(N)ncnc32)C1 (centres unmarked) [Example 435, 3-(2-{6-Amino-8-[(6-bromo-1,3-benzodioxol-5-yl)thio]-9H-purin-9-yl}ethyl)-N-ethylpiperidine-1-carboxamide]
32 | 390 | – | CC(C)NC(=O)N1CCCC(CCn2c(Sc3cc4c(cc3Br)OCO4)nc3c(N)ncnc32)C1 (centres unmarked) [Example 436, 3-(2-{6-Amino-8-[(6-bromo-1,3-benzodioxol-5-yl)thio]-9H-purin-9-yl}ethyl)-N-isopropylpiperidine-1-carboxamide]
